The values that follow come from US20060008512A1, “Composition and methods for improved animal performance” (priority 2004, published 2006).

Series [1] concerns 96-week old broiler breeder cockerels. The following applies: 2 or 5 ppm T4 in diet for 4 weeks; cited from earlier work.
For series [2], the system named is broiler chickens. The following applies: 1 mg/kg of diet, 0 to 28 days of age, cited from earlier work.
Series [3] relates to Bovans caged laying hens. As to the kind of experiment: Experiment 6: molting of caged laying hens with dietary L-thyroxine or TIC plus MgO or sodium salicylate. The following applies: 10 hours of light daily. It counts as in vivo, chicken. An excerpt:
Experiment 6. Molting of Caged Laying with Dietary L-Thyroxine or Thyroactive Iodinated Casein Plus MgO or Sodium Salicylate.
In Experiment 6, a conventional feed withdrawal molting procedure was compared with 5 dietary thyroxine treatments. Body weight loss after 9 days was greater, days to 0% egg production (9 days) shorter, ovary plus oviduct weight numerically lighter on day 9 of treatment, but eggs collected on day 4 of treatment had thinner shells, in the feed withdrawal group.

Where [4] appears, read: 40 mg T4/kg diet, listed as L-T.

Where two headings read alike, the source gives them in different places. Marks after values point to notes of the source that are not given here.

`N[C@@H](Cc1cc(I)c(Oc2cc(I)c(O)c(I)c2)c(I)c1)C(=O)O` [L-thyroxine, 3,5,3′,5′-tetraiodo-L-thyronine]: in series [1], the “Week at which daily sperm output returned to control values” is 11 week and the “Week at which plasma testosterone levels returned to control values” is 5 week. Moreover, the Serum thyroxine level in series [2] (first experiment (control 41.1)) was 88.7 ng/mL. Besides, in series [2] (second experiment (control 21.1)), the Serum thyroxine level is 69.3 ng/mL. Also, in series [3] (20 mg T4/kg diet), the “2&4 Jun. 05 Egg Weight” value is 58.68 g, the “4 Jun. 05 Shell + Membrane” value is recorded as 0.466^a mm, the “9 Jun. 05 (9th d Trt) Body Wt Change” value is listed as −0.50^b lb and the “9 Jun. 05 Ovary + Oviduct” value came to 4.59 % B Wt. In addition, in series [3] (20 mg T4/kg diet), the “25 May 05 Initial Body Wt” value is recorded as 3.49 lb and the “Days to 0% Egg Prod. (by Replicate)” value was 12.0^a Days. In series [3] (40 mg T4/kg diet), the “2&4 Jun. 05 Egg Weight” value was 60.17 g, the “4 Jun. 05 Shell + Membrane” value was 0.446^a mm, the “9 Jun. 05 (9th d Trt) Body Wt Change” value is reported as −0.54 lb and the “9 Jun. 05 Ovary + Oviduct” value amounted to 3.19 % B Wt. In addition, in series [3] (40 mg T4/kg diet), the “25 May 05 Initial Body Wt” value was 3.57 lb and the “Days to 0% Egg Prod. (by Replicate)” value came to 11 days. In addition, in series [3] (setting [4]), the “9 Jun. 05 (9th d Trt) Body Wt Change” value is −0.60^b lb and the “Days to 0% Egg Prod. (by Replicate)” value is given as 11.0^a Days.
